Species: Rattus norvegicus
Assay: Open TG-GATES - Regimen: Daily Repeat
Assay type: toxicity, organism-based, Sprague-Dawley
Design: regimen Daily Repeat, gender Male, age 6 weeks
Conditions: in vivo, po, route gavage; for APTT / Bas / Eos / Fbg / Hb / Ht / Lym / MCH / MCHC / MCV / Mono / Neu / PT / Plat / RBC / Ret / WBC: tissue Blood; for KIDNEY_L / KIDNEY_R / KIDNEY_TOTAL: tissue Kidney; for LIVER: tissue Liver; for A/G / ALP / ALT / AST / BUN / CRE / Ca / Cl / DBIL / GLC / IP / K / LDH / Na / PL / RALB / TBIL / TC / TG / TP / gamma-GTP: tissue Plasma
[1] = 100 mg/kg, 72 h, dose level Middle, time 3 day
[2] = 100 mg/kg, […], dose level Middle, time 7 day
[3] = 100 mg/kg, […], dose level Middle, time 14 day
[4] = 100 mg/kg, […], dose level Middle, time 28 day
[5] = 300 mg/kg, 72 h, dose level High, time 3 day
[6] = 300 mg/kg, […], dose level High, time 7 day
[7] = 300 mg/kg, […], dose level High, time 14 day
[8] = 300 mg/kg, […], dose level High, time 28 day

## ClC(Cl)(Cl)Cl [CARBON TETRACHLORIDE]
[1]
  TERMINAL_BW: 216.4 g
  APTT: 20.1 s
  Bas: 0%
  Eos: 1%
  Fbg: 220 mg/dL
  Hb: 13.9 g/dL
  Ht: 40.9%
  Lym: 75%
  MCH: 21.3 pg
  MCHC: 34%
  MCV: 62.6 fL
  Mono: 3.4%
  Neu: 19.6%
  PT: 12.6 s
  Plat: 123.3 x10_4/uL
  RBC: 653.4 x10_4/ul
  Ret: 5.6%
  WBC: 95 x10_2/uL
  KIDNEY_L: 0.9 g
  KIDNEY_R: 0.9 g
  KIDNEY_TOTAL: 1.8 g
  LIVER: 10.9 g
  A/G: 1.5
  ALP: 1153 IU/L
  ALT: 68.6 IU/L
  AST: 164.4 IU/L
  BUN: 13 mg/dL
  CRE: 0.4 mg/dL
  Ca: 10.9 mg/dL
  Cl: 103.4 meq/L
  DBIL: 0.066 mg/dL
  GLC: 184.4 mg/dL
  IP: 7.3 mg/dL
  K: 4 meq/L
  LDH: 279.4 IU/L
  Na: 140 meq/L
  PL: 132.2 mg/dL
  RALB: 3.2 g/dL
  TBIL: 0.1 mg/dL
  TC: 61.6 mg/dL
  TG: 30 mg/dL
  TP: 5.4 g/dL
  gamma-GTP: 1.4 IU/L
[2]
  TERMINAL_BW: 247.4 g
  APTT: 19.9 s
  Bas: 0%
  Eos: 1%
  Fbg: 229.6 mg/dL
  Hb: 13.9 g/dL
  Ht: 40.5%
  Lym: 83.4%
  MCH: 21.7 pg
  MCHC: 34.4%
  MCV: 63 fL
  Mono: 3%
  Neu: 12.8%
  PT: 12.1 s
  Plat: 112.3 x10_4/uL
  RBC: 642.2 x10_4/ul
  Ret: 5.8%
  WBC: 127.1 x10_2/uL
  KIDNEY_L: 1.1 g
  KIDNEY_R: 1.1 g
  KIDNEY_TOTAL: 2.2 g
  LIVER: 13.2 g
  A/G: 1.4
  ALP: 942.6 IU/L
  ALT: 53.4 IU/L
  AST: 113.4 IU/L
  BUN: 15.4 mg/dL
  CRE: 0.4 mg/dL
  Ca: 10.6 mg/dL
  Cl: 104.4 meq/L
  DBIL: 0.074 mg/dL
  GLC: 193.8 mg/dL
  IP: 7.6 mg/dL
  K: 4 meq/L
  LDH: 231.2 IU/L
  Na: 141 meq/L
  PL: 142.8 mg/dL
  RALB: 3.2 g/dL
  TBIL: 0.1 mg/dL
  TC: 63.4 mg/dL
  TG: 62.6 mg/dL
  TP: 5.5 g/dL
  gamma-GTP: 1.4 IU/L
[3]
  TERMINAL_BW: 301.8 g
  APTT: 22.1 s
  Bas: 0%
  Eos: 0.8%
  Fbg: 217.4 mg/dL
  Hb: 14 g/dL
  Ht: 41.6%
  Lym: 80.2%
  MCH: 20.1 pg
  MCHC: 33.6%
  MCV: 59.6 fL
  Mono: 3.2%
  Neu: 16%
  PT: 12.2 s
  Plat: 113 x10_4/uL
  RBC: 699 x10_4/ul
  Ret: 4%
  WBC: 110.8 x10_2/uL
  KIDNEY_L: 1.1 g
  KIDNEY_R: 1.2 g
  KIDNEY_TOTAL: 2.3 g
  LIVER: 15.1 g
  A/G: 1.6
  ALP: 1040.6 IU/L
  ALT: 106 IU/L
  AST: 165.4 IU/L
  BUN: 15.2 mg/dL
  CRE: 0.4 mg/dL
  Ca: 10.7 mg/dL
  Cl: 104 meq/L
  DBIL: 0.06 mg/dL
  GLC: 184.2 mg/dL
  IP: 7.6 mg/dL
  K: 3.8 meq/L
  LDH: 281.4 IU/L
  Na: 142 meq/L
  PL: 131.2 mg/dL
  RALB: 3.5 g/dL
  TBIL: 0.1 mg/dL
  TC: 64.4 mg/dL
  TG: 38.8 mg/dL
  TP: 5.7 g/dL
  gamma-GTP: 0.8 IU/L
[4]
  TERMINAL_BW: 377.7 g
  APTT: 20.8 s
  Bas: 0%
  Eos: 0.6%
  Fbg: 209.4 mg/dL
  Hb: 14.7 g/dL
  Ht: 42.8%
  Lym: 78.4%
  MCH: 18.3 pg
  MCHC: 34.3%
  MCV: 53.4 fL
  Mono: 3.8%
  Neu: 16.8%
  PT: 12.5 s
  Plat: 111.2 x10_4/uL
  RBC: 801.8 x10_4/ul
  Ret: 3%
  WBC: 148.3 x10_2/uL
  KIDNEY_L: 1.3 g
  KIDNEY_R: 1.3 g
  KIDNEY_TOTAL: 2.6 g
  LIVER: 18.2 g
  A/G: 1.4
  ALP: 760.2 IU/L
  ALT: 103.2 IU/L
  AST: 131 IU/L
  BUN: 16 mg/dL
  CRE: 0.5 mg/dL
  Ca: 10.3 mg/dL
  Cl: 102.6 meq/L
  DBIL: 0.072 mg/dL
  GLC: 203.6 mg/dL
  IP: 6.8 mg/dL
  K: 3.8 meq/L
  LDH: 390 IU/L
  Na: 140.8 meq/L
  PL: 122.8 mg/dL
  RALB: 3.4 g/dL
  TBIL: 0.1 mg/dL
  TC: 57 mg/dL
  TG: 32.2 mg/dL
  TP: 5.9 g/dL
  gamma-GTP: 1.2 IU/L
[5]
  TERMINAL_BW: 213 g
  APTT: 21.4 s
  Bas: 0%
  Eos: 1%
  Fbg: 217 mg/dL
  Hb: 14.1 g/dL
  Ht: 41.3%
  Lym: 73%
  MCH: 21.6 pg
  MCHC: 34.1%
  MCV: 63.2 fL
  Mono: 4%
  Neu: 20.4%
  PT: 13.5 s
  Plat: 114.2 x10_4/uL
  RBC: 655 x10_4/ul
  Ret: 5.5%
  WBC: 96.3 x10_2/uL
  KIDNEY_L: 1 g
  KIDNEY_R: 1 g
  KIDNEY_TOTAL: 1.9 g
  LIVER: 11.1 g
  A/G: 1.5
  ALP: 1664.6 IU/L
  ALT: 124.8 IU/L
  AST: 283.8 IU/L
  BUN: 14.6 mg/dL
  CRE: 0.4 mg/dL
  Ca: 10.7 mg/dL
  Cl: 103.8 meq/L
  DBIL: 0.068 mg/dL
  GLC: 178.4 mg/dL
  IP: 7.3 mg/dL
  K: 3.8 meq/L
  LDH: 355.2 IU/L
  Na: 140.4 meq/L
  PL: 116.4 mg/dL
  RALB: 3.1 g/dL
  TBIL: 0.1 mg/dL
  TC: 49.8 mg/dL
  TG: 28.6 mg/dL
  TP: 5.3 g/dL
  gamma-GTP: 1.2 IU/L
[6]
  TERMINAL_BW: 248.2 g
  APTT: 20.7 s
  Bas: 0%
  Eos: 1%
  Fbg: 230.4 mg/dL
  Hb: 13.5 g/dL
  Ht: 39.2%
  Lym: 78.8%
  MCH: 21.4 pg
  MCHC: 34.4%
  MCV: 62.3 fL
  Mono: 3.6%
  Neu: 16.2%
  PT: 12.4 s
  Plat: 106.7 x10_4/uL
  RBC: 629.6 x10_4/ul
  Ret: 6%
  WBC: 130.8 x10_2/uL
  KIDNEY_L: 1.1 g
  KIDNEY_R: 1.1 g
  KIDNEY_TOTAL: 2.2 g
  LIVER: 13.7 g
  A/G: 1.6
  ALP: 1583 IU/L
  ALT: 72.2 IU/L
  AST: 139.2 IU/L
  BUN: 16 mg/dL
  CRE: 0.4 mg/dL
  Ca: 10.6 mg/dL
  Cl: 104.4 meq/L
  DBIL: 0.074 mg/dL
  GLC: 186.2 mg/dL
  IP: 8.5 mg/dL
  K: 4.1 meq/L
  LDH: 305.4 IU/L
  Na: 140.6 meq/L
  PL: 129.2 mg/dL
  RALB: 3.3 g/dL
  TBIL: 0.1 mg/dL
  TC: 56 mg/dL
  TG: 44.4 mg/dL
  TP: 5.4 g/dL
  gamma-GTP: 1.4 IU/L
[7]
  TERMINAL_BW: 287.9 g
  APTT: 23 s
  Bas: 0%
  Eos: 1%
  Fbg: 211.6 mg/dL
  Hb: 14.2 g/dL
  Ht: 42.3%
  Lym: 81.4%
  MCH: 19.1 pg
  MCHC: 33.7%
  MCV: 56.9 fL
  Mono: 3%
  Neu: 14.2%
  PT: 12.6 s
  Plat: 101.2 x10_4/uL
  RBC: 744.4 x10_4/ul
  Ret: 3.5%
  WBC: 113.3 x10_2/uL
  KIDNEY_L: 1.1 g
  KIDNEY_R: 1.1 g
  KIDNEY_TOTAL: 2.2 g
  LIVER: 15.9 g
  A/G: 1.6
  ALP: 1597.4 IU/L
  ALT: 149.4 IU/L
  AST: 238.6 IU/L
  BUN: 16.4 mg/dL
  CRE: 0.5 mg/dL
  Ca: 10.4 mg/dL
  Cl: 103.8 meq/L
  DBIL: 0.064 mg/dL
  GLC: 187.6 mg/dL
  IP: 7.5 mg/dL
  K: 3.9 meq/L
  LDH: 389.6 IU/L
  Na: 140.8 meq/L
  PL: 113 mg/dL
  RALB: 3.4 g/dL
  TBIL: 0.1 mg/dL
  TC: 51.6 mg/dL
  TG: 21 mg/dL
  TP: 5.7 g/dL
  gamma-GTP: 1.4 IU/L
[8]
  TERMINAL_BW: 367.6 g
  APTT: 25.3 s
  Bas: 0%
  Eos: 1%
  Fbg: 198.8 mg/dL
  Hb: 14.5 g/dL
  Ht: 43.1%
  Lym: 82.4%
  MCH: 17.9 pg
  MCHC: 33.6%
  MCV: 53.1 fL
  Mono: 3.4%
  Neu: 13.2%
  PT: 13.7 s
  Plat: 99.7 x10_4/uL
  RBC: 811.4 x10_4/ul
  Ret: 2.3%
  WBC: 151.6 x10_2/uL
  KIDNEY_L: 1.2 g
  KIDNEY_R: 1.2 g
  KIDNEY_TOTAL: 2.5 g
  LIVER: 20.8 g
  A/G: 1.3
  ALP: 1255 IU/L
  ALT: 300.8 IU/L
  AST: 396.2 IU/L
  BUN: 17.8 mg/dL
  CRE: 0.5 mg/dL
  Ca: 10.6 mg/dL
  Cl: 103.4 meq/L
  DBIL: 0.092 mg/dL
  GLC: 174.2 mg/dL
  IP: 6.4 mg/dL
  K: 3.9 meq/L
  LDH: 534.6 IU/L
  Na: 141.6 meq/L
  PL: 103.6 mg/dL
  RALB: 3.4 g/dL
  TBIL: 0.2 mg/dL
  TC: 39.4 mg/dL
  TG: 20.8 mg/dL
  TP: 5.9 g/dL
  gamma-GTP: 1.2 IU/L
